Experimental data reported in article PMC4911353, “Pharmacologic Inhibition of Host Phosphodiesterase-4 Improves Isoniazid-Mediated Clearance of Mycobacterium tuberculosis” (Frontiers in Immunology, 2016).

Test system: Mtb-infected mouse lungs
Assay: Genome-wide lung transcriptome (microarray, IPA network/GO analysis) of Mtb-infected mice
Type: in vivo
Parameters: SDEGs upregulated in TNF-α interaction network / SDEGs downregulated in TNF-α interaction network: unit not given here
[1] = TNF-a regulon network, Mtb-infected mouse lungs, CC-11050 treated
[2] = lungs of treated infected animals

CCOc1cc([C@@H](CS(C)(=O)=O)N2Cc3cccc(NC(=O)C4CC4)c3C2=O)ccc1OC [CC-11050, N-[2-[(1S)-1-(3-ethoxy-4-methoxyphenyl)-2-(methylsulfonyl)ethyl]-2,3-dihydro-3-oxo-1H-isoindol-4-yl]-(9Cl) cyclopropanecarboxamide]
PCK2 expression (TNF-a regulon network): 0
PCP4 expression (TNF-a regulon network): 0
PCSK6 expression (TNF-a regulon network): 0
PDCD1 expression (TNF-a regulon network): 0
PDE2A expression (TNF-a regulon network): 0
PDE8B expression (TNF-a regulon network): 0
PDGFA expression (TNF-a regulon network): 0
PDPN expression (TNF-a regulon network): -1.216
PDZD2 expression (TNF-a regulon network): 0
PECAM1 expression (TNF-a regulon network): 0
PENK expression (TNF-a regulon network): 0
PIGR expression (TNF-a regulon network): 0
PKMYT1 expression (TNF-a regulon network): 0
PLA2G5 expression (TNF-a regulon network): 0
PLA2G16 expression (TNF-a regulon network): 0
PLAUR expression (TNF-a regulon network): 0
PLIN1 expression (TNF-a regulon network): 0
PLIN4 expression (TNF-a regulon network): 0
PLK3 expression (TNF-a regulon network): 0
PLSCR1 expression (TNF-a regulon network): 0
PML expression (TNF-a regulon network): 0
PPAP2A expression (TNF-a regulon network): 1.247
PPARA expression (TNF-a regulon network): 0
PPARD expression (TNF-a regulon network): 0
PPARG expression (TNF-a regulon network): 0
PPARGC1A expression (TNF-a regulon network): 0
PPP1R3C expression (TNF-a regulon network): 0
PRKCD expression (TNF-a regulon network): 0
PRSS23 expression (TNF-a regulon network): 0
PSMA2 expression (TNF-a regulon network): 0
PSMB8 expression (TNF-a regulon network): 0
PSMB9 expression (TNF-a regulon network): 0
PSMB10 expression (TNF-a regulon network): 0
PSME1 expression (TNF-a regulon network): 0
PSME2 expression (TNF-a regulon network): 0
PXMP2 expression (TNF-a regulon network): 0
PYCARD expression (TNF-a regulon network): 0
RAB32 expression (TNF-a regulon network): 0
RARRES2 expression (TNF-a regulon network): 0
RASD1 expression (TNF-a regulon network): 0
RCAN1 expression (TNF-a regulon network): 0
RCN3 expression (TNF-a regulon network): 1.2203
REL expression (TNF-a regulon network): 0
RETN expression (TNF-a regulon network): 0
RFTN1 expression (TNF-a regulon network): 0
RFX5 expression (TNF-a regulon network): 0
RGS1 expression (TNF-a regulon network): 0
RGS2 expression (TNF-a regulon network): 0
RGS4 expression (TNF-a regulon network): 0
RGS5 expression (TNF-a regulon network): 0
RGS7 expression (TNF-a regulon network): 0
RGS14 expression (TNF-a regulon network): 0
RGS16 expression (TNF-a regulon network): 0
RIPK1 expression (TNF-a regulon network): 0
RIPK2 expression (TNF-a regulon network): 0
RNASE2 expression (TNF-a regulon network): 0
RNASE4 expression (TNF-a regulon network): 0
RND3 expression (TNF-a regulon network): -1.216
RNF149 expression (TNF-a regulon network): 0
ROBO1 expression (TNF-a regulon network): 1.1568
RRM2 expression (TNF-a regulon network): 0
RUNX2 expression (TNF-a regulon network): 0
S100A8 expression (TNF-a regulon network): 0
SAA2 expression (TNF-a regulon network): 0
SAMD4A expression (TNF-a regulon network): 0
SCNN1A expression (TNF-a regulon network): 0
SCNN1B expression (TNF-a regulon network): 0
SCNN1G expression (TNF-a regulon network): 1.211
SCUBE1 expression (TNF-a regulon network): 0
SCUBE2 expression (TNF-a regulon network): 1.331
SDC2 expression (TNF-a regulon network): 0
SELPLG expression (TNF-a regulon network): 0
SEMA3C expression (TNF-a regulon network): 1.231
SEPP1 expression (TNF-a regulon network): 0
SERPINB9 expression (TNF-a regulon network): 0
SERPINE2 expression (TNF-a regulon network): 0
SERPINF1 expression (TNF-a regulon network): 0
SHH expression (TNF-a regulon network): 0
SLC14A1 expression (TNF-a regulon network): 0
SLC1A2 expression [1]: 0
SLC1A3 expression [1]: 0
SLC1A4 expression [1]: 0
SLC2A6 expression [1]: 0
SLC5A8 expression [1]: 0
SLC7A8 expression [1]: 0
SLC20A1 expression [1]: 0
SLFN12L expression [1]: 0
SMAD3 expression [1]: 0
SMPD1 expression [1]: 0
SMPD2 expression [1]: 0
SMPDL3A expression [1]: 1.176
SMURF1 expression [1]: 0
SMURF2 expression [1]: 1.4579
SNCG expression [1]: 0
SND1 expression [1]: 0
SOCS3 expression [1]: 0
SOD1 expression [1]: 1.19
SP1 expression [1]: 0
SP3 expression [1]: 0
SPHK1 expression [1]: 0
SQSTM1 expression [1]: 0
ST3GAL5 expression [1]: 0
ST3GAL6 expression [1]: 0
ST6GAL1 expression [1]: 0
STARD3 expression [1]: 0
STAT4 expression [1]: 0
STEAP4 expression [1]: 0
STMN1 expression [1]: -1.16
SULT2A1 expression [1]: 0
SYTL1 expression [1]: 0
Slco1a4 expression [1]: 0
TAP1 expression [1]: 0
TAPBP expression [1]: 0
TBX21 expression [1]: 0
TBXAS1 expression [1]: 0
TDRD7 expression [1]: 0
TEK expression [1]: 0
TF expression [1]: 0
THY1 expression [1]: 0
TIMP2 expression [1]: 0
TIMP4 expression [1]: 0
TJP1 expression [1]: 0
TLR7 expression [1]: 0
TLR8 expression [1]: 0
TM4SF1 expression [1]: 0
TNF expression [1]: 0
TNFAIP2 expression [1]: 0
TNFAIP3 expression [1]: 0
TNFAIP6 expression [1]: 0
TNFAIP8 expression [1]: 0
TNFRSF11A expression [1]: -1.191
TNFRSF18 expression [1]: 0
TNFSF10 expression [1]: 0
TNFSF13B expression [1]: 0
TNIP1 expression [1]: 0
TNN expression [1]: 0
TPD52L2 expression [1]: 1.132
TPT1 expression [1]: 0
TRADD expression [1]: 0
TRAF1 expression [1]: 0
TRAF2 expression [1]: 0
TRAF3 expression [1]: 0
TRAFD1 expression [1]: 0
TREM2 expression [1]: 0
TWIST2 expression [1]: 0
TXNIP expression [1]: 1.1361
TYK2 expression [1]: 0
Tgtp1/Tgtp2 expression [1]: 0
UBD expression [1]: 0
UBE2H expression [1]: 0
UCP1 expression [1]: 0
VASP expression [1]: 0
VCAM1 expression [1]: 0
VIPR2 expression [1]: 0
WHSC1 expression [1]: 0
WISP1 expression [1]: 0
WLS expression [1]: 0
WNT5A expression [1]: 0
WNT7A expression [1]: 0
WTAP expression [1]: 0
ZC3H12A expression [1]: 0
ZNF365 expression [1]: 0
Genes downregulated in lung inflammation network [2]: four
Genes upregulated in lung inflammation network [2]: nine
SDEGs downregulated in TNF-α interaction network [2]: 8
SDEGs upregulated in TNF-α interaction network [2]: 33
Il-17 interaction network genes whose expression was dampened (lungs of treated infected mice): 87%
Genes significantly differentially expressed in Il-17 interaction network (lungs of treated infected mice, HmgB1, Il17F, Entpd1, HspB8): four
